Test results: paper PMC10732398 (PLOS Pathogens, 2023)

Tested on: ⍺4β7 on primary CD8^+ T cells
Assay: Flow cytometry: FAM-conjugated pCD4^165-178 binding to RA-treated primary CD8^+ T cells
Set-up: species or system human
Conditions: FAM-Ttds-labelled peptide 1.25 μg/200,000 cells in 100 μl; presence or absence of Mn^++
From the text: To further investigate the interaction between pCD4^165-178 and ⍺4β7 we attached a fluorescein dye to its amino terminus via a trioxatridecan-succinamic acid (Ttds) linker (Fig 5A). A scrambled pCD4^165-178 was employed as a control. […] FIB504 and vedolizumab inhibited binding by ~50%. This inhibition pattern resembles the one we obtained when inhibiting D1D2-Ig⍺tp with the same antagonists (Fig 3). We conclude that the CD4 D2 G β-strand binds directly to the headpiece region of ⍺4β7 in a cation dependent manner. Support for this conclusion, in the form of site directed mutagenesis within the D2 G β-strand is provided below.
Fig 5 Direct binding of pCD4^165-178 to ⍺4β7 on primary T cells. (A) Sequence of FAM -conjugated pCD4^165-178 and a scrambled derivative (FAM-scr pCD4^165-178). (B) Flow-cytometry derived histogram of pCD4^165-178 binding to RA -cultured CD8^+ T cells. pCD4^165-178 in the presence (green), or absence of Mn^++(black). Unstained cells are shown (grey). (C) Binding of pCD4^165-178 and its scrambled derivative to CD8^+ T cells in the presence of MnCl2 as in panel B, and in the presence of ⍺4 and ⍺4β7 antagonists, as indicated. Y-axis indicates % cells bound. Error bars represent standard error from 3 independent experiments.
Cells were stained with fluoresceine conjugated mAbs or recombinant proteins using standard procedures preceded by Fc receptor blocking with human IgG. Buffers used were 10 mM HEPES 150 mM NaCl (HBS Buffer) with 100 μM CaCl2. 1 mM MnCl2 was also included, unless otherwise specified. Buffer without divalent cations included 0.1 mM EDTA. Unlabeled mAb or protein inhibitors were preincubated with cells or proteins at a 5X molar excess for 15 min on ice. FAM labeled peptides were used at 1.25 μg/ 200,000 cells in a 100 μl volume. Data were acquired using a FACSCanto II (BD Biosciences) and analyzed with FlowJo software (BD Biosciences). Plotted MFI values represent absolute values.

Q: How did the “binding of FAM-labelled peptide to RA-treated CD8^+ T cells (in words)” value turn out when “QKKVEFKIDIVVLA [CD4 P42, linear CD4 D2 peptide, residues 165-178, G β-strand]” was run?
A: Its value is “reacted strongly in the presence, but not in the absence of Mn^++”.
